Measurements: PubChem BioAssay (NCI)
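The concentration for 50% growth inhibition is given as GI50. TGI is the concentration that stops growth completely.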

Legend:
Test in all cases: inhibition of tumour cell growth, NCI panel, 384-well format
SNB-75 CNS = tested on: SNB-75 CNS
HCC-2998 colon = tested on: HCC-2998 colon
SW-620 colon = tested on: SW-620 colon
SF-539 CNS = tested on: SF-539 CNS
UACC-257 melanoma = tested on: UACC-257 melanoma
MDA-MB-468 breast = tested on: MDA-MB-468 breast
MDA-MB-435 melanoma = tested on: MDA-MB-435 melanoma
EKVX NSCLC = tested on: EKVX NSCLC
SR leukemia = tested on: SR leukemia
A498 renal = tested on: A498 renal
HS 578T breast = tested on: HS 578T breast
RXF 393 renal = tested on: RXF 393 renal
SK-MEL-28 melanoma = tested on: SK-MEL-28 melanoma
COLO 205 colon = tested on: COLO 205 colon
NCI-H322M lung = tested on: NCI-H322M lung
OVCAR-4 ovarian = tested on: OVCAR-4 ovarian
HOP-62 NSCLC = tested on: HOP-62 NSCLC
HT29 colon = tested on: HT29 colon
SK-MEL-2 melanoma = tested on: SK-MEL-2 melanoma
CCRF-CEM leukemia = tested on: CCRF-CEM leukemia
KM12 colon = tested on: KM12 colon
MDA-MB-231 breast = tested on: MDA-MB-231 breast
OVCAR-5 ovarian = tested on: OVCAR-5 ovarian
T-47D breast = tested on: T-47D breast
MOLT-4 leukemia = tested on: MOLT-4 leukemia
SF-268 CNS = tested on: SF-268 CNS
OVCAR-8 ovarian = tested on: OVCAR-8 ovarian
SF-295 CNS = tested on: SF-295 CNS
IGROV1 ovarian = tested on: IGROV1 ovarian
NCI-H226 lung = tested on: NCI-H226 lung
NCI-H460 NSCLC = tested on: NCI-H460 NSCLC
UO-31 renal = tested on: UO-31 renal
NCI-H522 lung = tested on: NCI-H522 lung
BT-549 breast = tested on: BT-549 breast
SNB-19 CNS = tested on: SNB-19 CNS
SN12C renal = tested on: SN12C renal
RPMI-8226 leukemia = tested on: RPMI-8226 leukemia
NCI-H23 lung = tested on: NCI-H23 lung
ACHN renal = tested on: ACHN renal
LOX IMVI melanoma = tested on: LOX IMVI melanoma
HL-60(TB) leukemia = tested on: HL-60(TB) leukemia
U251 glioblastoma = tested on: U251 glioblastoma
M14 melanoma = tested on: M14 melanoma
NCI/ADR-RES ovarian = tested on: NCI/ADR-RES ovarian
SK-OV-3 ovarian = tested on: SK-OV-3 ovarian
A549 NSCLC = tested on: A549 NSCLC
K-562 leukemia = tested on: K-562 leukemia

C[C@@H]1Cc2c(ccc3[nH]ncc23)[C@@H](c2ccc(NC3CN(CCCF)C3)cn2)N1CC(F)(F)F
GI50 (SNB-75 CNS): 17.6 µM | TGI (SNB-75 CNS): 31.4 µM | GI50 (HCC-2998 colon): 13.8 µM | TGI (HCC-2998 colon): 26.8 µM | GI50 (SW-620 colon): 16.6 µM | TGI (SW-620 colon): 30.4 µM | GI50 (SF-539 CNS): 16.7 µM | TGI (SF-539 CNS): 30.4 µM | GI50 (UACC-257 melanoma): 13.9 µM | TGI (UACC-257 melanoma): 26.9 µM | GI50 (MDA-MB-468 breast): 7.75 µM | TGI (MDA-MB-468 breast): 20.1 µM | GI50 (MDA-MB-435 melanoma): 16.8 µM | TGI (MDA-MB-435 melanoma): 30.6 µM | GI50 (EKVX NSCLC): 13.8 µM | TGI (EKVX NSCLC): 27.7 µM | GI50 (SR leukemia): 2.18 µM | TGI (SR leukemia): 4.92 µM | GI50 (A498 renal): 12.5 µM | TGI (A498 renal): 25 µM | GI50 (HS 578T breast): 13 µM | TGI (HS 578T breast): 25.7 µM | GI50 (RXF 393 renal): 4.54 µM | TGI (RXF 393 renal): 16.1 µM | GI50 (SK-MEL-28 melanoma): 16.1 µM | TGI (SK-MEL-28 melanoma): 29.7 µM | GI50 (COLO 205 colon): 16.1 µM | TGI (COLO 205 colon): 29.7 µM | GI50 (NCI-H322M lung): 16.4 µM | TGI (NCI-H322M lung): 30.9 µM | GI50 (OVCAR-4 ovarian): 19.3 µM | TGI (OVCAR-4 ovarian): 35.7 µM | GI50 (HOP-62 NSCLC): 17.6 µM | TGI (HOP-62 NSCLC): 31.4 µM | GI50 (HT29 colon): 14.6 µM | TGI (HT29 colon): 27.9 µM | GI50 (SK-MEL-2 melanoma): 15.8 µM | TGI (SK-MEL-2 melanoma): 29.2 µM | GI50 (CCRF-CEM leukemia): 5.58 µM | TGI (CCRF-CEM leukemia): 17.4 µM | GI50 (KM12 colon): 15.8 µM | TGI (KM12 colon): 29.8 µM | GI50 (MDA-MB-231 breast): 14.2 µM | TGI (MDA-MB-231 breast): 28.7 µM | GI50 (OVCAR-5 ovarian): 16 µM | TGI (OVCAR-5 ovarian): 30.7 µM | GI50 (T-47D breast): 10.9 µM | TGI (T-47D breast): 22.9 µM | GI50 (MOLT-4 leukemia): 3.09 µM | TGI (MOLT-4 leukemia): 12.8 µM | GI50 (SF-268 CNS): 16.5 µM | TGI (SF-268 CNS): 30.3 µM | GI50 (OVCAR-8 ovarian): 15.4 µM | TGI (OVCAR-8 ovarian): 28.9 µM | GI50 (SF-295 CNS): 17.7 µM | TGI (SF-295 CNS): 31.6 µM | GI50 (IGROV1 ovarian): 14.8 µM | TGI (IGROV1 ovarian): 30.1 µM | GI50 (NCI-H226 lung): 17.4 µM | TGI (NCI-H226 lung): 53.3 µM | GI50 (NCI-H460 NSCLC): 15.6 µM | TGI (NCI-H460 NSCLC): 29.3 µM | GI50 (UO-31 renal): 17.6 µM | TGI (UO-31 renal): 31.5 µM | GI50 (NCI-H522 lung): 11.9 µM | TGI (NCI-H522 lung): 24.3 µM | GI50 (BT-549 breast): 13.1 µM | TGI (BT-549 breast): 25.9 µM | GI50 (SNB-19 CNS): 23.1 µM | TGI (SNB-19 CNS): 49.8 µM | GI50 (SN12C renal): 15.9 µM | TGI (SN12C renal): 30.5 µM | GI50 (RPMI-8226 leukemia): 6.32 µM | TGI (RPMI-8226 leukemia): 19.3 µM | GI50 (NCI-H23 lung): 11.7 µM | TGI (NCI-H23 lung): 24.3 µM | GI50 (ACHN renal): 17.5 µM | TGI (ACHN renal): 31.5 µM | GI50 (LOX IMVI melanoma): 15.8 µM | TGI (LOX IMVI melanoma): 29.3 µM | GI50 (HL-60(TB) leukemia): 13.5 µM | TGI (HL-60(TB) leukemia): 26.4 µM | GI50 (U251 glioblastoma): 15 µM | TGI (U251 glioblastoma): 28.4 µM | GI50 (M14 melanoma): 16.3 µM | TGI (M14 melanoma): 29.9 µM | GI50 (NCI/ADR-RES ovarian): 23.5 µM | TGI (NCI/ADR-RES ovarian): 62.6 µM | GI50 (SK-OV-3 ovarian): 17.5 µM | TGI (SK-OV-3 ovarian): 31.4 µM | GI50 (A549 NSCLC): 27.5 µM | TGI (A549 NSCLC): 77.6 µM | GI50 (K-562 leukemia): 14.2 µM | TGI (K-562 leukemia): 27.5 µM
